We go through 19 compounds from patent US7122550B2, “Protein kinase inhibitors” (Cytopia Pty Ltd, priority 2002, dated 2006).

Holding throughout (type): cell-based
In one test the target is T1, Tel-Jak2 (Homo sapiens, UniProt O60674).
T1 construct: The regions encompassing the kinase domains of JAK2 (nucleotides 2994–3914); TEL (ETV6, human P41212) N-terminal part encoded by nucleotides 1-487 of TEL; expressed in transfected cells; host or cells: BaF3 (murine) bearing pTET-off, transfected with pTELJAK2 (pTRE2 vector); the other entry of the earlier key: ETV6 (P41212, Transcription factor ETV6)
T1 sequence (O60674 with tags, fused parts or gaps): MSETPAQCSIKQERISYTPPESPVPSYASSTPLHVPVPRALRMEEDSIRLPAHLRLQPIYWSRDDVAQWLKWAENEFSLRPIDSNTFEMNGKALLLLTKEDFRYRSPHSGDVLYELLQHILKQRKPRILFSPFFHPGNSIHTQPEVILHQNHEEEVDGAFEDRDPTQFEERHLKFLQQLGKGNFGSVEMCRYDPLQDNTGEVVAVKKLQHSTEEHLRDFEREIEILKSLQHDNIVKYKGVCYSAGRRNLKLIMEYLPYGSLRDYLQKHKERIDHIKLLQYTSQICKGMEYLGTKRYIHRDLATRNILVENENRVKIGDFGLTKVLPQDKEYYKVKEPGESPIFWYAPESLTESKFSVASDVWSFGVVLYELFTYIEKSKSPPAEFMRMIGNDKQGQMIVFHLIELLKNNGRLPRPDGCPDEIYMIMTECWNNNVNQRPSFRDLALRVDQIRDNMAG
Briefly: Cellular growth inhibition assay (MTT), Tel-Jak2 transformed BaF3 cell line. Particulars: 40 hr incubation, read-out: Jak2: growth inhibitory activity (>50%) in transformed cell line Tel-Jak2. The source says:
(§1) The coding region encompassing nucleotides 1–487 of TELwas amplified by PCR using the oligonucleotides 5TEL (5′-GGAGGATCCTGATCTCTCTCGCTGTGAGAC-3′) and 3TEL (5′-AGGC GTCGACTTCTTCTTCATGGTTCTG-3′) and U937 mRNA as template. A BamHI site was present into the 5TEL Primer, a SalI site was incorporated into the 3TEL primer. The regions encompassing the kinase domains of JAK2 (nucleotides 2994–3914; JAK2F 5′-ACGC GTCGACGGTGCCTTTGAAGACCGGGAT-3′; JAK2R 5′-ATAGTTTAGCGGCCGCTCAGAATGAAGGTCATTT-3′) and JAK3 (nucleotides 2520–3469; JAK3F 5′-GAAGTCGACTATGCCTGCCAAGACCCCACGATCTT-3′; JAK3R 5′-GGATCTAGACTATGAAAAGGACAGGGAGTGGTGTTT-3′) were generated by PCR using Taq DNA Polymerase (Gibco/BRL) and U937 mRNA as template. A SalI site was incorporated into the forward primer of JAK2 and JAK3, a NotI site was incorporated into the JAK2 reverse primer and a Xba I site was added to the reverse primer of JAK3.
(§2) A TEL/Jak2 fusion was generated by digestion of the TELPCR product with BamHI/SalI, digestion of the JAK2 PCR product with SalI/NotI followed by ligation and subcloning into the mammalian expression Vector pTRE 2 (Clontech) digested with BamHI-NotI (pTELJAK2). For JAK3 SalI/NotI cleaved kinase domain PCR product was ligated with BamHI/SalI cleaved TELproduct followed by ligation into BamHI/NotI cleaved pTRE2 (pTELJAK3).
(§3) The growth factor dependent myelomonocytic cell line BaF3 bearing the pTET-off plasmid (Clontech) was transfected with either pTELJAK2 or pTELJAK3 and the cells selected for factor independent growth. BaF 3 wild type cells were cultured in DMEM 10% FCS, 10% WEHI 3B conditioned medium. BaF3 TELJAK cells were cultured in DMEM 10% Tet-System Approved FBS (without WEHI 3B conditioned medium).
(§4) Cell suspensions were prepared by harvesting cells from culture. (Cells used in this test should be in later log phase growth and high viability.) Cells were diluted in correct growth medium to 1.1×final concentration (from 50000 cell/mL to 200,000 cell/mL, depending on cell line).
(§5) Compounds to be tested were added (10 μL, 10×final concentration) to a flat bottom 96-well plate. The cellular suspension (90 μL per well) was added, and the plate incubated for 40 hr at 37° C., 5% CO2. MTT (20 μL per well, 5 mg/mL in PBS) was added and the plates were returned to the incubator for a further 6 hours. Lysis buffer (100 μL per well, 10% SDS, 0.01N HCl) was added and the plate stored in the incubator overnight. The plate was then read at 590 nm.

The next test addresses T2, Tel-Jak3 (Homo sapiens, UniProt P52333).
T2 construct: TEL (ETV6, human P41212) N-terminal part encoded by nucleotides 1-487 of TEL; expressed in transfected cells; host or cells: BaF3 (murine) bearing pTET-off, transfected with pTELJAK3 (pTRE2 vector); the other entry of the earlier key: ETV6 (P41212, Transcription factor ETV6)
As to the kind of experiment: Cellular growth inhibition assay (MTT), Tel-Jak3 transformed BaF3 cell line. As to conditions: 40 hr incubation, read-out: Jak3: growth inhibitory activity (>50%) in transformed cell line Tel-Jak3.
Description: as §1, §2, §3, §4, §5

A further test has as its system DU145. Briefly: Cellular growth inhibition assay (MTT), DU145 cells. Particulars: Homo sapiens, DU-145, 40 hr incubation, read-out: DU145: growth inhibitory activity. As to the method: as §4, §5

T2 sequence (P52333 with tags, fused parts or gaps): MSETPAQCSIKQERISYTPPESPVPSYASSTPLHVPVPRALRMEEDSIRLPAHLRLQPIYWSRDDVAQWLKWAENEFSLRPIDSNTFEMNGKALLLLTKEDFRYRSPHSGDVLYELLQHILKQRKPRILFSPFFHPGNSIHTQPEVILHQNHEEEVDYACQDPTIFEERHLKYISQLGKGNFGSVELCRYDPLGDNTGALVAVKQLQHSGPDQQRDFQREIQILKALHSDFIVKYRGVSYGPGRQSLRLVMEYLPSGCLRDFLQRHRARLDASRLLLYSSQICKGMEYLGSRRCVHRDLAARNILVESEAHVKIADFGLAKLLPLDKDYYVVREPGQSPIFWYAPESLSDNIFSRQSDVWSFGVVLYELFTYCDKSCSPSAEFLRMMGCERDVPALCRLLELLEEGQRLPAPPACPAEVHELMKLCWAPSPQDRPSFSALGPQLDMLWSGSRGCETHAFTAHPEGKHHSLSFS

For the compound `COc1cc(-c2cncc(N[C@H]3CCc4ccccc43)n2)ccc1O` [Chemistry 68], the inhibition at 50 µM at Tel-Jak2 and at Tel-Jak3 was more than 50% in each case.

Turning to `COc1cc(-c2cncc(N[C@H]3CCCc4ccccc43)n2)ccc1O` [Chemistry 87], the inhibition at 50 µM was more than 50% on Tel-Jak2 and less than 50% on Tel-Jak3.

In the case of `COc1ccc([C@H](C)Nc2cncc(-c3ccc(O)c(OC)c3)n2)cc1` [Chemistry 117], the inhibition at 50 µM was more than 50% at Tel-Jak2, less than 50% with DU145 and more than 50% at Tel-Jak3.

Regarding `COc1cc(-c2cncc(N[C@@H](C)c3ccccc3)n2)ccc1O` [Chemistry 118], the inhibition at 50 µM at Tel-Jak2, in the test on DU145 and at Tel-Jak3 was more than 50% each time.

For the compound `CC[C@H](Nc1cncc(-c2ccc(O)c(OC)c2)n1)c1ccccc1` [Chemistry 119], the inhibition at 50 µM on Tel-Jak2, with DU145 and at Tel-Jak3 was more than 50% in each case.

For `COc1cc(-c2cncc(Nc3cc(Cl)ccc3C)n2)ccc1O` [Chemistry 130], the inhibition at 50 µM on Tel-Jak2 was more than 50%; in the test on DU145, more than 50%; at Tel-Jak3 it was less than 50%.

For the compound `COc1cc(-c2cncc(NCc3cccnc3)n2)ccc1O` [Chemistry 136], the inhibition at 50 µM on Tel-Jak2, with DU145 and on Tel-Jak3 was more than 50% in each case.

Turning to `COc1cc(-c2cncc(N(C)Cc3ccccc3)n2)ccc1O` [Chemistry 137], the inhibition at 50 µM on Tel-Jak2 is more than 50%; with DU145, less than 50%; at Tel-Jak3 it was more than 50%.

Regarding `COc1cc(-c2cncc(NCc3ccc(Cl)c(Cl)c3)n2)ccc1O` [Chemistry 139], the inhibition at 50 µM is more than 50% on Tel-Jak2, less than 50% in the test on DU145 and more than 50% on Tel-Jak3.

Regarding `COc1cc(-c2cncc(NCc3ccco3)n2)ccc1O` [Chemistry 141], the inhibition at 50 µM at Tel-Jak2, in the test with DU145 and at Tel-Jak3 was more than 50% throughout.

On to `COc1cc(-c2cncc(N(C)[C@@H](C)c3ccccc3)n2)ccc1O` [Chemistry 142], for which the inhibition at 50 µM at Tel-Jak2 was more than 50%; in the test with DU145, less than 50%; at Tel-Jak3, more than 50%.

Consider `COc1cc(-c2cncc(Nc3cc(F)ccc3C)n2)ccc1O` [Chemistry 144], for which the inhibition at 50 µM at Tel-Jak2 was more than 50%; in the test on DU145, less than 50%; on Tel-Jak3 it was more than 50%.

Regarding `COc1cc(-c2cncc(N[C@@H](C)c3ccc4ccccc4c3)n2)ccc1O` [Chemistry 155], the inhibition at 50 µM on Tel-Jak2 was more than 50%; in the test on DU145, less than 50%; at Tel-Jak3 it was more than 50%.

Consider `COc1cc(-c2cncc(Nc3ccc(F)cc3C)n2)ccc1O` [Chemistry 156], for which the inhibition at 50 µM at Tel-Jak2 is more than 50%; with DU145 it was less than 50%; at Tel-Jak3, more than 50%.

In the case of `COc1cccc([C@H](C)Nc2cncc(-c3ccc(O)c(OC)c3)n2)c1` [Chemistry 158], the inhibition at 50 µM at Tel-Jak2, in the test on DU145 and on Tel-Jak3 was more than 50% throughout.

Consider `C[C@H](Nc1cncc(-c2ccc(F)c(Cl)c2)n1)c1ccccc1` [Chemistry 174], for which the inhibition at 50 µM at Tel-Jak2 is more than 50%; in the test on DU145 it was less than 50%; on Tel-Jak3, more than 50%.

With `C[C@H](Nc1cncc(-c2ccc(O)c(Cl)c2)n1)c1ccccc1` [Chemistry 175], the inhibition at 50 µM is less than 50% on Tel-Jak2, less than 50% with DU145 and more than 50% on Tel-Jak3.

Consider `C[C@H](Nc1cncc(-c2ccc(N)cc2)n1)c1ccccc1` [Chemistry 181], for which the values for the inhibition at 50 µM at Tel-Jak2, with DU145 and on Tel-Jak3 were more than 50%, less than 50% and more than 50%, respectively.

`COc1cc(-c2cncc(NC(C)c3ccc(-c4ccccc4)cc3)n2)ccc1O` (stereo not shown) [Chemistry 185]: the inhibition at 50 µM is more than 50% on Tel-Jak2, less than 50% with DU145 and more than 50% on Tel-Jak3.
